Experimental data reported in patent US4562175A, “Synthetic peptides” (priority 1984, dated 1985).
“Also recorded” adds a separate entry of the source. Non-standard residues stand in square brackets, D forms with d. No end group written: not given here. Nle = CCCC[C@H](N)C(=O)O

Assays:
[1] = test system: monolayer rat pituitary cell cultures; assay: GH release from monolayer rat pituitary cell cultures; type: cell-based
Procedure: In vitro analysis of the synthetic peptide: The synthetic Nle^27 -hpGRF was added to the medium of monolayer rat pituitary cell cultures and incubated. After incubation, the media was assayed for GH released from the pituitary cells and compared to control cultures (medium alone). The amount of GH released in response to varying doses of Nle^27 -hpGRF was compared to the GH release induced by the same concentrations of the synthetic hpGRF.

[2] = Susceptibility to oxidation / loss of biological activity (stability); type: physicochemical
[3] = storage or in a living system; believed to be caused at least partly by oxidation of methionine 27; cited from earlier work

Substance: YADAIFTNSYRKVLGQLSARKLLQDI[Nle]SRQQGQSNQERGARARL-NH2 [Nle^27 -hpGRF]
- GH-releasing activity (GH released into medium) compared with hpGRF ([1]; varying doses, same concentrations as synthetic hpGRF, tested at the same time under identical conditions): significantly greater biological activity than synthetic hpGRF; also recorded: greater growth hormone-releasing activity than the natural compound; also recorded: greater GH-releasing activity than original hpGRF
- resistance to oxidation ([2]; norleucine at position 27 instead of methionine): resistant to oxidation

Substance: corticotropin-releasing factor
- loss of biological activity through methionine oxidation [2]: Loss of biologic activity

Substance: hpGRF: human pancreatic tumor growth hormone-releasing factor, 44 amino acid residues, methionine at position 27
- loss of biological activity during storage or when introduced into a living system [3]: drastic loss of biological activity
- GH-releasing activity with reducing agent added to the test medium ([1]; L-ascorbic acid added to test medium, compared to medium without reducing agent): enhance the GH-releasing activity
- loss of biological activity through methionine oxidation [2]: drastic loss of biological activity
